This is an account of results in patent publication US4276289A, “Antitumor glycosides, their preparation and use” (Farmitalia Carlo Erba, S.p.A., priority 1979, dated 1981).

Each structure is given as a SMILES string. In brackets after ≈: the same amount, converted by molar mass. Where two headings read alike, the source gives them in different places.

The test system of data set [1] is HeLa cells. Description: in vitro test against HeLa cells. Format: cell-based. Conditions: Homo sapiens, read-out: ID50 on HeLa Cells. On the procedure:
The biological activity of the compounds according to the invention was tested in vitro against HeLa cells in comparison with daunorubicin and doxorubicin.
Compound ID50 on HeLa Cells (ng/ml)

Data set [2] deals with P 388 leukemia. Put plainly: in vivo activity against P 388 leukemia (treatment i.p. on day 1 after tumor implantation).

Consider `COc1cccc2c1C(=O)c1c(O)c3c(c(O)c1C2=O)C[C@@](O)(C(=O)CO)C[C@@H]3O[C@H]1C[C@H](N)[C@H](O)[C@H](C)O1` [Doxorubicin, reference compound], for which the IC50 in data set [1] (HeLa) amounted to 0.0095 µg/mL (≈ 0.0175 µM). Besides, in data set [2] (4.4 mg/kg), the “LTS (long term survivors)” value is on record as 2/10, the T/C % came to 209% and the Toxicity was 0/8. In data set [2] (6.6 mg/kg), the “LTS (long term survivors)” value is 0/10, the T/C % is 233% and the Toxicity is on record as 0/8.

Regarding `COc1cccc2c1C(=O)c1c(O)c3c(c(O)c1C2=O)C[C@@](O)(C(C)=O)C[C@@H]3O[C@H]1C[C@H](N)[C@H](O)[C@H](C)O1` [Daunorubicin, reference compound], the IC50 in data set [1] (HeLa) is 0.014 µg/mL (≈ 0.0265 µM). The “LTS (long term survivors)” value in data set [2] (2.9 mg/kg) is given as 0/18; in data set [2] (4.4 mg/kg), 0/18; in data set [2] (6.6 mg/kg) it was 0/8. The results for the Toxicity in data set [2] (2.9 mg/kg), in data set [2] (4.4 mg/kg) and in data set [2] (6.6 mg/kg) were 0/18, 0/18 and 3/8, respectively. This molecule came in with a T/C % in data set [2] (6.6 mg/kg) of 163%.

Consider `COc1cccc2c1C(=O)c1c(O)c3c(c(O)c1C2=O)C[C@@](O)(C(=O)CO)C[C@@H]3O[C@H]1C[C@@H](N)[C@@H](OC)[C@H](C)O1` [3',4'-diepi-4'-O-methyl doxorubicin, 3',4'-diepi-4'-O-methyl-doxorubicin], for which the IC50 in data set [1] (in vitro, HeLa cells) came out at 0.0059 µg/mL (≈ 0.0106 µM). In addition, the “LTS (long term survivors)” value in data set [2] (1.9 mg/kg), in data set [2] (2.9 mg/kg), in data set [2] (4.4 mg/kg) and in data set [2] (6.6 mg/kg) was 0/10 in each case. The T/C % in data set [2] (1.9 mg/kg) came out at 180%; in data set [2] (2.9 mg/kg), 200%; in data set [2] (4.4 mg/kg) it was 109%; in data set [2] (6.6 mg/kg), 76%. Also, the Toxicity is reported as 0/10 in data set [2] (1.9 mg/kg), 2/10 in data set [2] (2.9 mg/kg), 10/10 in data set [2] (4.4 mg/kg) and 10/10 in data set [2] (6.6 mg/kg).

As to `COc1cccc2c1C(=O)c1c(O)c3c(c(O)c1C2=O)C[C@@](O)(C(C)=O)C[C@@H]3O[C@H]1C[C@@H](N)[C@@H](OC)[C@H](C)O1` [3',4'-diepi-4'-O-methyl daunorubicin, 3',4'-diepi-4'-O-methyl-daunorubicin], the IC50 in data set [1] (in vitro, HeLa cells) was found to be 0.036 µg/mL (≈ 0.0665 µM). Also, the “LTS (long term survivors)” value in data set [2] (6.6 mg/kg) was 0/8; in data set [2] (10 mg/kg) it was 0/8; in data set [2] (15 mg/kg), 0/18; in data set [2] (22 mg/kg) it was 0/10; in data set [2] (33 mg/kg) it was 1/10. Besides, the T/C % is 145% in data set [2] (6.6 mg/kg), 154% in data set [2] (10 mg/kg), 222% in data set [2] (22 mg/kg) and 231% in data set [2] (33 mg/kg). In addition, the Toxicity in data set [2] (6.6 mg/kg) is recorded as 0/8; in data set [2] (10 mg/kg), 0/8; in data set [2] (15 mg/kg) it was 0/18; in data set [2] (22 mg/kg), 0/10; in data set [2] (33 mg/kg), 2/10.
